Measured values published in ChEMBL document CHEMBL3611985, “Synthesis and structure-activity relationships of novel 9-oxime acylides with improved bactericidal activity” (2015).
≈ marks a conversion by molar mass, not a printed value.

Legend:
Assay type in all cases: functional
[1] = test system: Streptococcus pneumoniae; assay: Antimicrobial activity against erythromycin-susceptible Streptococcus pneumoniae ATCC 49619 incubated for 20 to 24 hrs by two-fold microbroth dilution method
[2] = test system: Streptococcus pneumoniae; assay: Antimicrobial activity against penicillin-susceptible Streptococcus pneumoniae PU09 incubated for 20 to 24 hrs by two-fold microbroth dilution method
[3] = test system: Streptococcus pyogenes; assay: Antimicrobial activity against Streptococcus pyogenes 01-968 expressing inducible ermA incubated for 20 to 24 hrs by two-fold microbroth dilution method
[4] = test system: Staphylococcus aureus; assay: Antimicrobial activity against methicillin-resistant Staphylococcus aureus PU32 expressing inducible ermA incubated for 20 hrs by two-fold microbroth dilution method; settings: PU32, 20 h
[5] = test system: Staphylococcus aureus; assay: Antimicrobial activity against methicillin-resistant Staphylococcus aureus PU20 expressing constitutive ermC incubated for 20 hrs by two-fold microbroth dilution method; settings: PU20, 20 h
[6] = test system: Haemophilus influenzae; assay: Antimicrobial activity against azithromycin-susceptible and ampicillin-resistant Haemophilus influenzae 11P037 incubated for 20 to 24 hrs by two-fold microbroth dilution method
[7] = test system: Streptococcus pyogenes; assay: Antimicrobial activity against Streptococcus pyogenes 12-207 expressing mef incubated for 20 to 24 hrs by two-fold microbroth dilution method
[8] = test system: Moraxella catarrhalis; assay: Antimicrobial activity against erythromycin-susceptible Moraxella catarrhalis 11B366 incubated for 20 hrs by two-fold microbroth dilution method; settings: 11B366, 20 h
[9] = test system: Streptococcus pneumoniae; assay: Bactericidal activity against erythromycin-susceptible Streptococcus pneumoniae ATCC 49619 incubated for 20 to 24 hrs followed by sub-culturing for 24 hrs in absence of compound
[10] = test system: Streptococcus pneumoniae; assay: Bactericidal activity against penicillin-susceptible Streptococcus pneumoniae PU09 incubated for 20 to 24 hrs followed by sub-culturing for 24 hrs in absence of compound
[11] = test system: Streptococcus pyogenes; assay: Bactericidal activity against Streptococcus pyogenes 01-968 expressing inducible ermA incubated for 20 to 24 hrs followed by sub-culturing for 24 hrs in absence of compound
[12] = test system: Streptococcus pyogenes; assay: Bactericidal activity against Streptococcus pyogenes 12-207 expressing mef incubated for 20 to 24 hrs followed by sub-culturing for 24 hrs in absence of compound
[13] = test system: Haemophilus influenzae; assay: Bactericidal activity against azithromycin-susceptible and ampicillin-resistant Haemophilus influenzae 11P037 incubated for 20 to 24 hrs followed by sub-culturing for 24 hrs in absence of compound
[14] = test system: Staphylococcus aureus; assay: Bactericidal activity against methicillin-resistant Staphylococcus aureus PU32 expressing inducible ermA incubated for 20 hrs followed by sub-culturing for 24 hrs in absence of compound
[15] = test system: Staphylococcus aureus; assay: Bactericidal activity against methicillin-resistant Staphylococcus aureus PU20 expressing constitutive ermC incubated for 20 hrs followed by sub-culturing for 24 hrs in absence of compound
[16] = test system: Moraxella catarrhalis; assay: Bactericidal activity against erythromycin-susceptible Moraxella catarrhalis 11B366 incubated for 20 hrs followed by sub-culturing for 24 hrs in absence of compound
[17] = test system: Streptococcus pneumoniae; assay: Ratio of MBC to MIC against erythromycin-susceptible Streptococcus pneumoniae ATCC 49619
[18] = test system: Streptococcus pneumoniae; assay: Ratio of MBC to MIC against penicillin-susceptible Streptococcus pneumoniae PU09
[19] = test system: Streptococcus pyogenes; assay: Ratio of MBC to MIC against Streptococcus pyogenes 01-968 expressing inducible ermA
[20] = test system: Streptococcus pyogenes; assay: Ratio of MBC to MIC against Streptococcus pyogenes 12-207 expressing mef
[21] = test system: Haemophilus influenzae; assay: Ratio of MBC to MIC against azithromycin-susceptible and ampicillin-resistant Haemophilus influenzae 11P037
[22] = test system: Staphylococcus aureus; assay: Ratio of MBC to MIC against methicillin-resistant Staphylococcus aureus PU32 expressing inducible ermA
[23] = test system: Staphylococcus aureus; assay: Ratio of MBC to MIC against methicillin-resistant Staphylococcus aureus PU20 expressing constitutive ermC
[24] = test system: Moraxella catarrhalis; assay: Ratio of MBC to MIC against erythromycin-susceptible Moraxella catarrhalis 11B366

Row | SMILES | MIC [1] [µg/mL] | MIC [2] [µg/mL] | MIC [3] [µg/mL] | MIC [4] [µg/mL] | MIC [5] [µg/mL] | MIC [6] [µg/mL] | MIC [7] [µg/mL] | MIC [8] [µg/mL] | MBC [9] [µg/mL] | MBC [10] [µg/mL] | MBC [11] [µg/mL] | MBC [12] [µg/mL] | MBC [13] [µg/mL] | MBC [14] [µg/mL] | MBC [15] [µg/mL] | MBC [16] [µg/mL] | Ratio [17] | Ratio [18] | Ratio [19] | Ratio [20] | other results
1 | CC[C@H]1OC(=O)[C@H](C)C(=O)[C@H](C)[C@@H](O[C@@H]2O[C@H](C)C[C@H](N(C)C)[C@H]2O)[C@](C)(OC)C[C@@H](C)/C(=N\OC/C=C/c2cnc3ccccc3c2)[C@H](C)[C@H]2OC(=O)O[C@@]21C | ≤ 0.008 | 0.25 (≈ 0.314 µM) | 0.062 (≈ 0.0779 µM) | 1 (≈ 1.26 µM) | 32 (≈ 40.2 µM) | 8 (≈ 10.1 µM) | 0.016 (≈ 0.0201 µM) | 2 (≈ 2.51 µM) | 0.031 (≈ 0.0389 µM) | 0.5 (≈ 0.628 µM) | > 0.5 | > 0.125 | > 64 | > 8 | 32 (≈ 40.2 µM) | 2 (≈ 2.51 µM) | >=4 | 2 | >8 | >8 | Ratio [21]: >8; Ratio [22]: >8; Ratio [23]: 1; Ratio [24]: 1
2 | CC[C@H]1OC(=O)[C@H](C)[C@@H](OC(=O)Cc2ccccn2)[C@H](C)[C@@H](O[C@@H]2O[C@H](C)C[C@H](N(C)C)[C@H]2O)[C@](C)(OC)C[C@@H](C)/C(=N\OCC#Cc2cnc(N)nc2)[C@H](C)[C@H]2OC(=O)O[C@@]21C | 0.016 (≈ 0.0182 µM) | 0.5 (≈ 0.568 µM) | 0.25 (≈ 0.284 µM) | 1 (≈ 1.14 µM) | 128 (≈ 145 µM) | 8 (≈ 9.08 µM) | 0.25 (≈ 0.284 µM) | 2 (≈ 2.27 µM) | 0.031 (≈ 0.0352 µM) | 1 (≈ 1.14 µM) | 0.5 (≈ 0.568 µM) | > 2 | 64 (≈ 72.6 µM) | 8 (≈ 9.08 µM) | 256 (≈ 291 µM) | 4 (≈ 4.54 µM) | 2 | 2 | 2 | >8 | Ratio [21]: 8; Ratio [22]: 8; Ratio [23]: 2; Ratio [24]: 2
3 | CC[C@H]1OC(=O)[C@H](C)[C@@H](OC(=O)Cc2ccccn2)[C@H](C)[C@@H](O[C@@H]2O[C@H](C)C[C@H](N(C)C)[C@H]2O)[C@](C)(OC)C[C@@H](C)/C(=N\OCC#Cc2ccc3nccnc3c2)[C@H](C)[C@H]2OC(=O)O[C@@]21C | ≤ 0.008 | 0.5 (≈ 0.546 µM) | 0.031 (≈ 0.0338 µM) | 1 (≈ 1.09 µM) | 128 (≈ 140 µM) | 16 (≈ 17.5 µM) | 0.062 (≈ 0.0677 µM) | 2 (≈ 2.18 µM) | 0.008 (≈ 0.00873 µM) | 1 (≈ 1.09 µM) | 0.25 (≈ 0.273 µM) | > 0.5 | > 128 | > 8 | 128 (≈ 140 µM) | 2 (≈ 2.18 µM) | >=1 | 2 | 8 | >8 | Ratio [21]: >8; Ratio [22]: >8; Ratio [23]: 1; Ratio [24]: 1
